Reference: PubChem BioAssay AID248 (DTP/NCI, 2004)
“And” between values parts separate entries of the source, which are not always exact repeats. Identical values can stand only once. Inconclusive results and toxic doses are left out. Rule as the data show it: active = T/C of 150% or more; inactive = T/C below 125%.

System: L1210 leukemia ip in BDF1 mice, survival T/C
Experiment: NCI In Vivo Anticancer Drug Screen. Data for tumor model L1210 Leukemia (intraperitoneal) in B6D2F1 (BDF1) mice
Details: endpoint: mean survival time, higher = longer survival
Method in brief: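 Mice bearing the transplanted tumor received compound or vehicle. Survival of the treated group was divided by that of the vehicle-treated control group to give the ratio.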

[1] = dose: 100.0 mg/kg/injection, schedule: Q04DX002 (ip), vehicle: saline with Tween-80
[2] = dose: 200.0 mg/kg/injection, schedule: Q04DX002 (ip), vehicle: saline with Tween-80
[3] = dose: 12.5 mg/kg/injection, schedule: Q01DX009 (ip), vehicle: saline
[4] = dose: 25.0 mg/kg/injection, schedule: Q01DX009 (ip), vehicle: saline
[5] = dose: 50.0 mg/kg/injection, schedule: Q01DX009 (ip), vehicle: saline
[6] = dose: 100.0 mg/kg/injection, schedule: Q01DX009 (ip), vehicle: saline with Tween-80
[7] = dose: 200.0 mg/kg/injection, schedule: Q01DX009 (ip), vehicle: saline with Tween-80
[8] = dose: 400.0 mg/kg/injection, schedule: Q01DX009 (ip), vehicle: saline with Tween-80
[9] = dose: 50.0 mg/kg/injection, schedule: Q01DX009 (ip), vehicle: Klucel (hydroxypropylcellulose) (HPC)
[10] = dose: 100.0 mg/kg/injection, schedule: Q01DX009 (ip), vehicle: Klucel (hydroxypropylcellulose) (HPC)
[11] = dose: 100.0 mg/kg/injection, schedule: Q04DX003 (ip), vehicle: Klucel (hydroxypropylcellulose) (HPC)
[12] = dose: 200.0 mg/kg/injection, schedule: Q04DX003 (ip), vehicle: Klucel (hydroxypropylcellulose) (HPC)
[13] = dose: 50.0 mg/kg/injection, schedule: Q01DX009 (ip), vehicle: saline with Tween-80
[14] = dose: 200.0 mg/kg/injection, schedule: Q01DX009 (ip), vehicle: Klucel (hydroxypropylcellulose) (HPC)
[15] = dose: 400.0 mg/kg/injection, schedule: Q01DX009 (ip), vehicle: Klucel (hydroxypropylcellulose) (HPC)
[16] = dose: 75.0 mg/kg/injection, schedule: Q01DX001 (ip), vehicle: saline
[17] = dose: 100.0 mg/kg/injection, schedule: Q01DX001 (ip), vehicle: Klucel (hydroxypropylcellulose) (HPC)
[18] = dose: 200.0 mg/kg/injection, schedule: Q01DX001 (ip), vehicle: Klucel (hydroxypropylcellulose) (HPC)
[19] = dose: 400.0 mg/kg/injection, schedule: Q01DX001 (ip), vehicle: Klucel (hydroxypropylcellulose) (HPC)
[20] = dose: 400.0 mg/kg/injection, schedule: Q04DX003 (ip), vehicle: Klucel (hydroxypropylcellulose) (HPC)
[21] = dose: 100.0 mg/kg/injection, schedule: Q04DX003 (ip), vehicle: saline with Tween-80
[22] = dose: 200.0 mg/kg/injection, schedule: Q04DX003 (ip), vehicle: saline with Tween-80
[23] = dose: 400.0 mg/kg/injection, schedule: Q04DX003 (ip), vehicle: saline with Tween-80
[24] = dose: 400.0 mg/kg/injection, schedule: Q04DX002 (ip), vehicle: saline with Tween-80

Measured: T/C

O=C1OC(c2ccccc2)=N/C1=C\c1ccccc1Cl
inactive: [1] 87 % of control | [2] 94 % of control

CC1CN(c2ccc([N+](=O)[O-])cc2)C(C)CN1 (stereo unspecified)
inactive: dose: 6.25 mg/kg/injection, schedule: Q01DX009 (ip), vehicle: saline 102 % of control | [3] 91 % of control | [4] 102 % of control | [5] 97 % of control and 101 % of control | dose: 100.0 mg/kg/injection, schedule: Q01DX009 (ip), vehicle: saline 88 % of control | dose: 100.0 mg/kg/injection, schedule: Q04DX003 (ip), vehicle: saline 98 % of control | dose: 200.0 mg/kg/injection, schedule: Q04DX003 (ip), vehicle: saline 100 % of control

COc1ccccc1OC(=O)Nc1ccccc1F
inactive: [6] 97 % of control | [7] 96 % of control | [8] 118 % of control

O=C(Nc1cc(Cl)c(Oc2ccc(Cl)cc2)cc1S(=O)(=O)O)Nc1cccc(Cl)c1Cl
inactive: [9] 109 % of control | [10] 104 % of control

COc1ccc(C(=O)c2cccs2)cc1
inactive: dose: 50.0 mg/kg/injection, schedule: Q01DX009 (ip), vehicle: saline sonified 101 % of control | dose: 100.0 mg/kg/injection, schedule: Q01DX009 (ip), vehicle: saline sonified 104 % of control | [11] 97 % of control | dose: 200.0 mg/kg/injection, schedule: Q01DX009 (ip), vehicle: saline sonified 102 % of control | [12] 94 % of control

OC1C2C3CCC(CC3)C2C(C2OCCO2)C2C3CCC(C3)C12 (stereo unspecified)
inactive: [13] 96 % of control | [6] 96 % of control | [7] 89 % of control

NC1CC(c2ccccc2)NC(c2ccccc2)C1 (stereo unspecified)
inactive: dose: 15.0 mg/kg/injection, schedule: Q01DX001 (ip), vehicle: carboxymethylcellulose (CMC) 100 % of control

CC(=O)c1ccc(Cc2ccc(C(C)=O)cc2)cc1
inactive: [10] 98 % of control | [14] 98 % of control | [15] 106 % of control

OC1CC=CC=CC1
inactive: [16] 94 % of control | dose: 150.0 mg/kg/injection, schedule: Q01DX001 (ip), vehicle: saline 97 % of control

Cc1ccc(-n2c(=O)c(N=Nc3ccc(Br)cc3)c(O)n(-c3ccccc3C)c2=S)cc1
inactive: [17] 95 % of control | [18] 88 % of control | [19] 88 % of control

Cn1cnc([N+](=O)[O-])c1[Se]c1nc(N)nc2c1ncn2C1OC(CO)C(O)C1O (stereo unspecified)
active: [3] 161 % of control and 165 % of control | [4] 189 % of control and 201 % of control | [5] 203 % of control and 255 % of control

CNC(=O)Nc1ccccc1C(=O)OC
inactive: [10] 100 % of control | [11] 97 % of control | [14] 98 % of control | [12] 97 % of control | [15] 98 % of control | [20] 101 % of control

Cc1cc2c(cc1C)C(O)C(N1CCCCC1)CCC2 (stereo unspecified)
inactive: [21] 100 % of control | [22] 92 % of control | [23] 90 % of control

Nc1ccccc1CSc1nc2nc[nH]c2c(=O)[nH]1
inactive: dose: 5.0 mg/kg/injection, schedule: Q01DX009 (ip), vehicle: Klucel (hydroxypropylcellulose) (HPC) 99 % of control | dose: 10.0 mg/kg/injection, schedule: Q01DX009 (ip), vehicle: Klucel (hydroxypropylcellulose) (HPC) 97 % of control | dose: 20.0 mg/kg/injection, schedule: Q01DX009 (ip), vehicle: Klucel (hydroxypropylcellulose) (HPC) 103 % of control

CCOC(=O)C[n+]1cccc(Br)c1
inactive: dose: 100.0 mg/kg/injection, schedule: Q01DX001 (ip), vehicle: carboxymethylcellulose (CMC) 91 % of control | dose: 200.0 mg/kg/injection, schedule: Q01DX001 (ip), vehicle: carboxymethylcellulose (CMC) 104 % of control | dose: 400.0 mg/kg/injection, schedule: Q01DX001 (ip), vehicle: carboxymethylcellulose (CMC) 104 % of control

CC1CN1P(=O)(OCCCl)N1CC1C (stereo unspecified)
inactive: dose: 20.0 mg/kg/injection, schedule: Q01DX Z (ip), vehicle: saline 97 % of control | dose: 40.0 mg/kg/injection, schedule: Q01DX Z (ip), vehicle: saline 100 % of control | dose: 80.0 mg/kg/injection, schedule: Q01DX Z (ip), vehicle: saline 108 % of control | dose: 160.0 mg/kg/injection, schedule: Q01DX Z (ip), vehicle: saline 117 % of control

CC(=O)OCC(OC(C)=O)C1(O)CCC2C3CCC4=CC(=O)CCC4(C)C3CCC21C (stereo unspecified)
inactive: [9] 100 % of control | [10] 94 % of control and 107 % of control | [14] 93 % of control

c1ccc(-c2cn[nH]c2-c2ccccc2)cc1
inactive: [1] 103 % of control | [2] 100 % of control | [24] 106 % of control

Nc1nc(C=O)c(-c2cccc3ccccc23)c(=O)[nH]1
inactive: [6] 112 % of control | [7] 94 % of control

CN(C)C(=S)SCc1c(O)c(C(C)(C)C)cc2cc(C(C)(C)C)ccc12
inactive: dose: 100.0 mg/kg/injection, schedule: Q04DX002 (ip), vehicle: Klucel (hydroxypropylcellulose) (HPC) 105 % of control | dose: 200.0 mg/kg/injection, schedule: Q04DX002 (ip), vehicle: Klucel (hydroxypropylcellulose) (HPC) 110 % of control | dose: 400.0 mg/kg/injection, schedule: Q04DX002 (ip), vehicle: Klucel (hydroxypropylcellulose) (HPC) 102 % of control

CC(C)/[N+]([O-])=C/C=C/c1ccccc1
inactive: [11] 96 % of control | [12] 97 % of control | [20] 100 % of control

O=C(Nc1cc([N+](=O)[O-])ccc1O)Nc1cc([N+](=O)[O-])ccc1F
inactive: [11] 100 % of control | [12] 94 % of control | [20] 98 % of control

Cc1ccc(NC(=O)OCCOc2cc(C)c(Cl)c(C)c2)cc1[N+](=O)[O-]
inactive: [13] 87 % of control | [6] 101 % of control | [7] 90 % of control

CCCCCCCCCCCCCCCCCCS(=O)(=O)CCCl
inactive: dose: 25.0 mg/kg/injection, schedule: Q04DX003 (ip), vehicle: Klucel (hydroxypropylcellulose) (HPC) 107 % of control | dose: 50.0 mg/kg/injection, schedule: Q04DX003 (ip), vehicle: Klucel (hydroxypropylcellulose) (HPC) 100 % of control | [11] 96 % of control | [12] 93 % of control | [20] 91 % of control

Cc1nc2c(nc1C)C(=O)C1C3c4ccccc4C(c4ccccc43)C1C2=O (stereo unspecified)
inactive: [12] 93 % of control | [20] 93 % of control

S=P(c1cccc2ccccc12)(c1cccc2ccccc12)c1cccc2ccccc12
inactive: dose: 100.0 mg/kg/injection, schedule: Q01DX001 (ip), vehicle: saline 97 % of control | dose: 200.0 mg/kg/injection, schedule: Q01DX001 (ip), vehicle: saline 95 % of control | dose: 400.0 mg/kg/injection, schedule: Q01DX001 (ip), vehicle: saline 95 % of control

Cc1ccc2c(c1)N(CCCN(C)C)c1ccccc1S2
inactive: dose: 12.5 mg/kg/injection, schedule: Q04DX003 (ip), vehicle: saline 102 % of control | dose: 25.0 mg/kg/injection, schedule: Q04DX003 (ip), vehicle: saline 116 % of control

CC(=O)OCC1OC(SP(C)C)C(OC(C)=O)C(OC(C)=O)C1OC(C)=O (stereo unspecified)
inactive: [17] 101 % of control | [18] 98 % of control | [19] 96 % of control

C/C=C(\CC)C1(C(C)C)C(=O)NC(=O)NC1=O
inactive: [16] 91 % of control

CCOC(=O)c1ccc(NC(=O)Nc2cccc3c(O)cccc23)cc1
inactive: dose: 50.0 mg/kg/injection, schedule: Q04DX003 (ip), vehicle: saline with Tween-80 102 % of control | dose: 100.0 mg/kg/injection, schedule: Q01DX001 (ip), vehicle: saline with Tween-80 86 % of control | [6] 86 % of control | [1] 97 % of control and 106 % of control | [21] 94 % of control | dose: 200.0 mg/kg/injection, schedule: Q01DX001 (ip), vehicle: saline with Tween-80 86 % of control | [7] 89 % of control | [2] 97 % of control and 91 % of control | [22] 93 % of control and 87 % of control | [8] 89 % of control | [24] 89 % of control and 91 % of control | [23] 97 % of control
